Experimental data taken from article PMC5571211 (Scientific Reports, 2017).

Tests used:
[1] = biological target: T1, sEH in HepG2 cells (Homo sapiens, UniProt P34913); test: 14,15-DiHETrE formation in HepG2 cells (cell-based sEH assay); conditions: HepG2 cells; AUDA 5 µM, MK886 0.3 µM, SC57461A 0.3 µM
T1 construct: sEH is constitutively expressed in the human liver cancer cell line HepG2; endogenous in cells; host or cells: HepG2
T1 sequence (P34913 1-555): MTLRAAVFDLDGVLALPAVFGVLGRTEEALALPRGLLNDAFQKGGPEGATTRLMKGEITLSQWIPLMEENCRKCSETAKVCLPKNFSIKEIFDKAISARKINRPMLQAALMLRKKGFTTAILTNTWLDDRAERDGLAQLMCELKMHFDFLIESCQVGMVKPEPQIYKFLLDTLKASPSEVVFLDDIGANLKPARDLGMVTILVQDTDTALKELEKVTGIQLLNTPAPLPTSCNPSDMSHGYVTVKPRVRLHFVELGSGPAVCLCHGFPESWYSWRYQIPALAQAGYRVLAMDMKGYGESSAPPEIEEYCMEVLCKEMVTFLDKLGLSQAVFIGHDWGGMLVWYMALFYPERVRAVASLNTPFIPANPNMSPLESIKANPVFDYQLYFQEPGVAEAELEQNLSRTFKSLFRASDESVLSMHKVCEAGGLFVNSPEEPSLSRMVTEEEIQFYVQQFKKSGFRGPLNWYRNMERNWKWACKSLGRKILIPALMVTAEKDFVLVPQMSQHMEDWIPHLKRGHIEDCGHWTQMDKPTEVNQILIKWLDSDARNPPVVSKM
Description: To assay the activity of sEH in a cell-based model, HepG2 cells were harvested by trypsinization, pelleted (1,200 rpm, 5 min, 4 °C) and resuspended in PGC buffer to a final concentration of 1.5 × 10^6 cells/mL. […] Briefly, samples were acidified with four volumes of MilliQ water pH 3.5 containing PBS-HCl and subjected to Waters Sep-Pak® Vac 6cc columns (Waters, Milford, MA, USA), washed once with MilliQ and hexane, and eluted with methylformiate. The nitrogen-dried samples were dissolved in 50% methanol, and 14,15-DiHETrE formation was measured by UPLC-MS/MS using an Acquity™ UPLC system (Waters, Milford, MA, USA) and a QTRAP 5500 Mass Spectrometer (ABSciex, Darmstadt, Germany) equipped with a Turbo V™ Source and electrospray ionization (ESI). […] Ion spray voltage was set to 4000 V, the heater temperature to 500 °C, the declustering potential to 50–80 eV, the entrance potential to 10 eV, the collision cell exit potential to 10–13 eV, collision energies of 10 eV, the spray gas pressure to 40 psi, medium collision gas and the curtain gas pressure to 35 psi.

[2] = tested on: 5-LOX product formation (FLAP) in human neutrophils; test: 5-LOX product formation in intact human neutrophils stimulated with Ca2+-ionophore A23187; format: cell-based; conditions: 5 h, read-out: IC50, formation of LTB4 and its isomers and of 5-H(p)ETE (5-LOX product formation); intact human neutrophils (PMNL), Ca2+-ionophore A23187, no AA supplementation
Description: After elution with methanol, samples were analyzed by RP-HPLC using a C-18 Radial-PAK column (Waters, Eschborn, Germany).

[3] = tested on: HEK293 cells expressing 5-LOX (deficient in FLAP); test: 5-LOX product formation in HEK293 cells expressing 5-LOX alone; format: cell-based; conditions: HEK293 expressing 5-LOX, A23187 plus 3 µM AA
Description: HEK293 cells were cultured in monolayers (37 °C, 5% CO2) in DMEM containing FCS (10%), penicillin (100 U/mL) and streptomycin (100 µg/mL). HEK293 cell lines stably expressing 5-LOX with or without FLAP were selected using geneticin (400 µg/mL) with or without hygromycin (200 µg/mL), respectively, as previously described. Transfection of HEK293 was performed using pcDNA3.1 plasmids and lipofectamine according to the manufacturer’s instructions (Invitrogen, Darmstadt, Germany).
For analysis of 5-LOX product formation in HEK293 cells stably expressing 5-LOX with or without FLAP, cells were harvested by trypsinization, pelleted (1,200 rpm, 5 min, 4 °C) and resuspended in PGC buffer to a final concentration of 1 × 10^6 cells/mL. Aliquots were pre-incubated with test compounds or 0.1% DMSO for 15 min, respectively, and stimulated with 2.5 µM A23187 and 3 µM AA.

[4] = biological target: T2, mPGES-1 (Homo sapiens, UniProt O14684); test: mPGES-1 activity in microsomes of IL-1β-stimulated A549 cells; format: biochemical; conditions: cell-free, up to 10 µM
T2 construct: A549 cells were cultivated in DMEM medium containing FCS (2%) and IL-1β (2 ng/mL) for 72 h; endogenous in cells; host or cells: A549 cells, IL-1β-induced, microsomal fraction
T2 sequence (O14684 1-152): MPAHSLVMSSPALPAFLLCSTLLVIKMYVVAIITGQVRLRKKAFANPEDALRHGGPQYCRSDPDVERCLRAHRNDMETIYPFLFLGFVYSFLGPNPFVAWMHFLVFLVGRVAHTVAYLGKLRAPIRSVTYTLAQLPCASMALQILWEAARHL
Description: To perform the analysis of microsomal PGE2 synthase (mPGES)-1 activity, microsomal preparations of A549 cells were obtained as described before. Briefly, A549 cells were cultivated in DMEM medium containing FCS (2%) and IL-1β (2 ng/mL) for 72 h (37 °C, 5% CO2). Cells were harvested and resuspended in homogenization buffer consisting of potassium phosphate (0.1 M, pH 7.4), phenylmethanesulfonyl fluoride (1 mM), soybean trypsin inhibitor (60 µg/mL), leupeptin (1 µg/mL), glutathione (2.5 mM), and sucrose (250 mM). After freezing the cells in liquid nitrogen and sonication (3 × 20 s), a differential centrifugation at 10,000 g (10 min, 4 °C) and 174,000 × g (60 min, 4 °C) was performed and pellets were resuspended in homogenization buffer. […] After stimulation (1 min, 4 °C) with 20 µM PGH2 the reaction was terminated by addition of stop solution containing FeCl3 (40 mM), citric acid (80 mM), and 11β-PGE2 (10 µM as internal standard) and analyzed for PGE2 product formation by RP-HPLC as reported before.

[5] = tested on: monocytes; test: Acute cytotoxicity, MTT assay in monocytes; format: cell-based, human; conditions: 24 or 48 hrs; diflapolin 10 µM, staurosporine 3 µM
Description: Acute cytotoxicity of the compounds was determined using freshly isolated monocytes. Cells (0.2 × 10^6) per sample were seeded in 100 µL buffer on 96-well plates and treated with the test compounds and appropriate controls for 24 or 48 hrs (37 °C, 5% CO2). After addition of MTT (5 mg/mL) for 2 h (37 °C, 5% CO2), cells were lysed by SDS treatment (10%, pH 4.5) for 16–20 hrs and formazan formation was determined by measurement of absorbance at 570 nm.

CC(C)c1ccc2c(c1)c(SC(C)(C)C)c(CC(C)(C)C(=O)O)n2Cc1ccc(Cl)cc1 [MK886, 3-[1-(4-chlorobenzyl)-3-t-butyl-thio-5-isopropylindol-2-yl]-2,2 - dimethylpropanoic acid] was tested, and the “effect on sEH in the cell-based sEH assay” value [1] was “no impact” and the IC50 [2] was 10 to 14 nM.

With Cc1cc(OCc2nc3ccccc3s2)ccc1NC(=O)Nc1ccc(Cl)c(Cl)c1 [diflapolin, N-[4-(benzothiazol-2-ylmethoxy)-2-methylphenyl]-N′-(3,4-dichlorophenyl)urea] the “inhibition of 5-LOX product formation” value [3] was “hardly impaired”, the “inhibition of mPGES-1 activity” value [4] was “failed to inhibit” and the “viability of monocytes, MTT assay” value [5] was “did not affect the viability”.
